Laboratory results reported in US20110207729A1, “BICYCLIC ACYLGUANIDINE DERIVATIVE” (ASTELLAS PHARMA INC., priority 2007, published 2011).
Structures can show the parent of a compound that is named as a salt.

Target: T1, human 5-HT5A receptor (Homo sapiens, UniProt P47898)
T1 construct: expressed in transfected cells; membrane preparation
Assay: Test on a human 5-HT5A receptor binding inhibition ([3H]5-CT)
Settings: membrane from HEK293 cells expressing human 5-HT5A receptor; Ki calculated from IC50 and Kd 4.95 nM
Description: Acquisition of HEK293 cells for forced expressions of a human 5-HT5A receptor
The ORF (open reading frame; protein coding region) of a human 5-HT5A receptor (Genbank AF498985) was cloned from a human hippocampus cDNA library, and then inserted into a pCR2.1 vector (Invitrogen), and Escherichia coli containing the plasmid was cultured in a large amount. Next, the full-length cDNA sequence of the human 5-HT5A receptor was analyzed, and recombined into a pcDNA3.1 vector (Invitrogen) as an expression vector and cultured in a large amount. HEK293 established cells (ATCC) derived from the human fetal kidney were seeded, the expression plasmid (1 μg) obtained above were added thereto with LIPOFECTAMINE 2000 (Invitrogen; 2 μl), the gene was transfected into HEK293 cells, and the expression cells were screened with a drug-resistant marker, Geneticin (G418 sulfate 500 μg/ml; Kanto Chemical Co., Inc.). Thus prepared recombinant cells which express the gene were cultured in a medium containing D-MEM (Dulbecco's modified eagle medium, Sigma), 10% FCS (Fetal calf serum: fetal bovine serum), 1% Pc./Sm (Penicillin/Streptomycin, Invitrogen), and 500 μg/ml G418 for 3 days. These experimental operations follow an manual for gene operation experiment and an instruction appended in a reagent, and the like, such as a known method (Sambrook, J. et al, Molecular Cloning—A Laboratory Manual”, Cold Spring Harabor laboratory, NY, 1989).
(1) Preparation of a Membrane from HEK293 Cells for Forced Expressions of a Human 5-HT5A Receptor
HEK293 cells for forced expressions of a human 5-HT5A receptor were cultured in a F500 plate, and scraped with a scraper. After centrifugation, a precipitate was collected, and an incubation buffer (50 mM Tris (HCl) (pH 7.4), 10 mM MgSO4, and 0.5 mM EDTA (ethylenediamine tetraacetic acid)) were added thereto. After homogenization, it was further centrifuged, and the precipitate was added with the incubation buffer, followed by thoroughly suspending. This operation was repeated, and a protein concentration was measured, thereby completing the preparation of a membrane.
(2) Test on a Human 5-HT5A Receptor Binding Inhibition
A solution of a compound to be tested and 100 μM 5-CT (5-carboxamidetriptamine) in DMSO was added to a 96-well plate at 2 μl/well, and suspended in an incubation buffer, and a membrane from HEK293 cells for forced expressions of a human 5-HT5A receptor prepared at 200 μg/ml was added at 100 μl/well. After incubation at room temperature for 15 minutes, a [^3H]5-CT solution (2 nM [^3H]5-CT, incubation buffer) was added thereto at 100 μl/well.
Separately, 100 μl of the solution was distributed into a liquid scintillation vial, and 2 ml of Aquasol II (registered trademark) was added thereto, followed by stirring. Then, a radioactivity was measured by a liquid scintillation counter. It was incubated at 37° C. for 60 minutes. The reaction mixture was sucked into 96-well GF/C filter plate that had been pre-treated with 0.2% polyethyleneimine, and washed six times with an ice-cooled, 50 mM Tris (pH 7.5) buffer. The GF/C filter plate was dried.
Microscint TMPS (registered trademark) was added thereto at 40 μl/well. A radioactivity remaining on the GF/C filter plate was measured by a top counter.
The [^3H]5-CT binding inhibiting activity by the compound to be tested in each experiment was determined as an IC50 value with a radioactivity upon addition of DMSO alone being 0% inhibition, and a radioactivity upon addition of 1 μM 5-CT being 100% inhibition. Separately, a Ki value was calculated from the Kd value of the [^3H]5-CT determined from Scatchard analysis, by the following equation.
Ki=IC50(1+Concentration of ligands added/Kd(4.95 nM))

T1 sequence (P47898 whole entry): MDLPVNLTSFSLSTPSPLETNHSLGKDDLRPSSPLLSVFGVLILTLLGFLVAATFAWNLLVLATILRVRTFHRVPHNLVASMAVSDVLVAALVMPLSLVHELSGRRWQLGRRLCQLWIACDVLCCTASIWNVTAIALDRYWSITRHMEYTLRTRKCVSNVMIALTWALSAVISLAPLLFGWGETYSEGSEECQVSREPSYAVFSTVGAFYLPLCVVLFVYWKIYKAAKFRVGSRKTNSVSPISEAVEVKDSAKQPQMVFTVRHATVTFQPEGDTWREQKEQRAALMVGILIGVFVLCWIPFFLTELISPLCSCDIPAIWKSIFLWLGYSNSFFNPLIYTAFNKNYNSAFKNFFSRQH

Ki [nM] | Compound
0.3 to 3 | NC(N)=NC(=O)c1ccc2c(c1)C(c1ccc(F)cc1Cl)=CCC2 [Example 2-70]
0.3 to 3 | NC(N)=NC(=O)c1ccc2c(c1)C(c1cccc(Cl)c1F)=CCC2 [Example 2-110]
3 to 30 | N#Cc1ccccc1C1=CCSc2ccc(C(=O)N=C(N)N)cc21 [Example 3-19]
3 to 30 | NC(N)=NC(=O)c1ccc2c(c1)C(c1cccnc1Cl)=CCC2 [Example 2-176]
3 to 30 | COc1cc(F)cc(F)c1C1=CCCc2ccc(C(=O)N=C(N)N)cc21 [Example 2-179]
0.3 to 3 | NC(N)=NC(=O)c1ccc2c(c1)C(c1ccccc1)=C(F)CC2 [Example 2-43]
0.3 to 3 | COc1cc(F)ccc1C1=CCCc2ccc(C(=O)N=C(N)N)cc21 [Example 2-54]
3 to 30 | N#Cc1cccc(F)c1C1=CCCc2ccc(C(=O)N=C(N)N)cc21 [Example 2-180]
3 to 30 | CCOc1ccc(C2=CCCc3ccc(C(=O)N=C(N)N)cc32)cc1 [Example 2-87]
30 to 300 | COc1ccccc1C1=CCCCc2ccc(C(=O)N=C(N)N)cc21 [Example 3-06]
0.3 to 3 | NC(N)=NC(=O)c1ccc2c(c1)C(c1ccsc1)=CCC2 [Example 2-19]
3 to 30 | Cn1nccc1C1=CCCc2ccc(C(=O)N=C(N)N)cc21 [Example 2-81]
3 to 30 | COc1ccccc1C1=CCCOc2ccc(C(=O)N=C(N)N)cc21 [Example 3-11]
3 to 30 | CN(C)Cc1cccc(C2=CCCc3ccc(C(=O)N=C(N)N)cc32)c1 [Example 2-38]
0.3 to 3 | COc1ccccc1-c1csc2ccc(C(=O)N=C(N)N)cc12 [Example 3-08]
30 to 300 | COc1ccccc1C1=CCSc2ccc(C(=O)N=C(N)N)cc21 [Example 3-18]
0.3 to 3 | COc1cc(C#N)ccc1C1=CCCc2ccc(C(=O)N=C(N)N)cc21 [Example 2-55]
0.3 to 3 | NC(N)=NC(=O)c1ccc2c(c1)C(c1cccc(F)c1Cl)=CCC2 [Example 2-168]

Ki [nM] | Compound
30 to 300 | Cn1cc(C2=CCCc3ccc(C(=O)N=C(N)N)cc32)ccc1=O [Example 2-191]
3 to 30 | N#Cc1cc(F)ccc1C1=CCCc2ccc(C(=O)N=C(N)N)cc21 [Example 2-57]
3 to 30 | NC(N)=NC(=O)c1ccc2c(c1)C(c1ccnc(Cl)c1)=CCC2 [Example 2-174]
3 to 30 | NC(N)=NC(=O)c1ccc2c(c1)C(c1ccccc1O)=CCC2 [Example 2-50]
3 to 30 | COc1ccc(F)cc1C1=CCOc2ccc(C(=O)N=C(N)N)cc21 [Example 1-50]
0.3 to 3 | NC(N)=NC(=O)c1ccc2c(c1)C(c1ccccc1O)=CCO2 [Example 1-22]
30 to 300 | COc1ccccc1C1=CC(C)(C)Oc2ccc(C(=O)N=C(N)N)cc21 [Example 1-01, N-(diaminomethylene)-4-(2-methoxyphenyl)-2,2-dimethyl-2H-chromene-6-carboxamide hydrochloride]
3 to 30 | COc1ccccc1C1=CCOc2c(F)cc(C(=O)N=C(N)N)cc21 [Example 1-86]
3 to 30 | COc1ccc(C2=CCCc3ccc(C(=O)N=C(N)N)cc32)cc1C#N [Example 2-78]
30 to 300 | NC(N)=NC(=O)c1ccc2c(c1)C(c1ccccc1CO)=CCC2 [Example 2-35]
3 to 30 | NC(N)=NC(=O)c1ccc2c(c1)C(c1ccc(F)nc1)=CCC2 [Example 2-53]
30 to 300 | NC(N)=NC(=O)c1ccc2c(c1)C(c1ccccc1Oc1ccccc1)=CCC2 [Example 2-33]
3 to 30 | NC(N)=NC(=O)c1ccc2c(c1)C(c1ccncc1)=CCC2 [Example 2-49]
3 to 30 | Cc1ccc(C2=CCCc3ccc(C(=O)N=C(N)N)cc32)c(C#N)c1 [Example 2-79]
30 to 300 | CC(C)Oc1ccccc1C1=CCCc2ccc(C(=O)N=C(N)N)cc21 [Example 2-45]
30 to 300 | CCCC1=C(c2ccccc2)c2cc(C(=O)N=C(N)N)ccc2CC1 [Example 2-116]
0.3 to 3 | NC(N)=NC(=O)c1ccc2c(c1)C(c1c(F)cccc1F)=CCC2 [Example 2-105]

The next lines start with the compound.

Compound | Ki [nM]
NC(N)=NC(=O)c1ccc2scc(-c3ccccc3)c2c1 [Example 3-07] | 3 to 30
Cc1ccc(Cl)c(C2=CCOc3ccc(C(=O)N=C(N)N)cc32)c1F [Example 1-82] | 0.3 to 3
NC(N)=NC(=O)c1ccc2c(c1)C(c1cc(F)ccc1Cl)=CCO2 [Example 1-103] | 0.3 to 3
CC1(C)C=C(c2ccc(F)cc2F)c2cc(C(=O)N=C(N)N)ccc2O1 [Example 1-105] | 3 to 30
NC(N)=NC(=O)c1ccc2c(c1)C(c1cc(F)c(F)cc1F)=CCO2 [Example 1-53] | 3 to 30
NC(N)=NC(=O)c1ccc2c(c1)C(c1cc(F)cc(F)c1)=CCO2 [Example 1-46] | 3 to 30
CC(C)n1cc(C2=CCCc3ccc(C(=O)N=C(N)N)cc32)cn1 [Example 2-167] | 30 to 300
N#Cc1ccc(C2=CCSc3ccc(C(=O)N=C(N)N)cc32)cc1 [Example 3-17] | 3 to 30
N#Cc1ccc(C2=CCOc3c(F)cc(C(=O)N=C(N)N)cc32)cc1 [Example 1-87] | 30 to 300
CC1(C)C=C(c2ccc(F)cc2)c2cc(C(=O)N=C(N)N)ccc2O1 [Example 1-110] | 30 to 300
COCCN/C(N)=N/C(=O)c1ccc2c(c1)C(c1c(F)cccc1F)=CCO2 [Example 1-03, N-{1-amino[(2-methoxyethyl)amino]methylene}-4-(2,6-difluorophenyl)-2H-chromene-6-carboxamide hydrochloride] | 3 to 30
COc1ccc(-c2csc3ccc(C(=O)N=C(N)N)cc23)c(OC)c1 [Example 3-20] | 3 to 30
NC(N)=NC(=O)c1ccc2c(c1)C(c1cncs1)=CCC2 [Example 2-157] | 3 to 30
CC1C=C(c2c(F)cc(F)cc2F)c2cc(C(=O)N=C(N)N)ccc2O1 (stereo not shown) [Example 1-71] | 0.3 to 3
CC1(C)CC=C(c2ccccc2)c2cc(C(=O)N=C(N)N)ccc21 [Example 2-80] | 30 to 300
CC1=C(c2ccc(F)cc2C)c2cc(C(=O)N=C(N)N)ccc2CC1 [Example 2-163] | 0.3 to 3
NC(N)=NC(=O)c1ccc2c(c1)C(c1ccc(F)c(Cl)c1)=CCO2 [Example 1-80] | 3 to 30
NC(N)=NC(=O)c1ccc2c(c1)C(c1ccc(F)cc1Cl)=CCO2 [Example 1-55] | 0.3 to 3
N#Cc1ccccc1-c1csc2ccc(C(=O)N=C(N)N)cc12 [Example 3-38] | 3 to 30
CC1=C(c2ccc(F)cc2F)c2cc(C(=O)N=C(N)N)ccc2CC1 [Example 2-177] | 0.3 to 3
CC1(C)C=C(c2cc(F)c(F)cc2F)c2cc(C(=O)N=C(N)N)ccc2O1 [Example 1-120] | 30 to 300
NC(N)=NC(=O)c1ccc2c(c1)C(c1c(F)cc(F)cc1F)=CCCO2 [Example 3-12] | 0.3 to 3
NC(N)=NC(=O)c1ccc2c(c1)C(c1c(F)cc(F)cc1F)=CCS2 [Example 3-16] | 0.3 to 3
NC(N)=NC(=O)c1ccc2c(c1)C(c1cc(Cl)c(F)cc1F)=CCC2 [Example 2-136] | 3 to 30
COc1cc(F)c(F)cc1C1=CCOc2ccc(C(=O)N=C(N)N)cc21 [Example 1-79] | 3 to 30
NC(N)=NC(=O)c1ccc2c(c1)C(c1cccc(Cl)c1F)=CCO2 [Example 1-81] | 0.3 to 3
